Assay results published in US12479812B2, “Fatty acid derivatives and their use” (THE UNITED STATES OF AMERICA, as represented by the …, priority 2017, dated 2025).

How the values were obtained:
[1] = test system: adult rat dorsal root ganglia (DRG) neurons; assay: Ex vivo CGRP release assay in adult rat sensory neuronal cultures; type: cell-based; conditions: 1 μM; for capsaicin-evoked CGRP release: 30 nM capsaicin; for low-pH-evoked CGRP release: buffer pH adjusted to 6.0
Description: For release experiments, the work was approved by the Animal Care and Use Committee at Indiana University School of Medicine, Indianapolis, IN. Adult rat sensory neuronal cultures were prepared as previously described (Burkey, Hingtgen, and Vasko, Methods in molecular medicine 99, 189, 2004; Kelley et al., PloS one 9, e106485, 2014). Cells were maintained for 10-12 days in F-12 media (Invitrogen, Carlsbad, CA) supplemented with 10% horse serum, 2 mM glutamine, 100 μg/ml normocin™, 50 μg/ml penicillin, 50 μg/ml streptomycin, 50 μM 5-fluoro-2′-deoxyuridine (Invitrogen), 150 μM uridine, and 30 ng/ml of NGF (Harlan Bioproducts for Science, Inc. Indianapolis, IN) in 3% CO2 at 37° C. On the day of the release experiments, cultures were washed with HEPES buffer (25 mM HEPES, 135 mM NaCl, 3.5 mM KCl, 2.5 mM CaCl2, 1 mM MgCl2, 3.3 mM D-glucose, and 0.1% bovine serum albumin, pH 7.4 and maintained at 37° C. Cultures were then incubated with 0.4 ml of the same buffer in the absence or presence of drugs. Basal release was determined by exposing the cells to HEPES buffer alone for 10 min, then to buffer in the presence of mediators for 10 min to ascertain if the compounds stimulated release. Cultures were then exposed to buffer containing 30 nM capsaicin or buffer with the pH adjusted to 6.0 in the absence or presence of mediators. Cells then were re-exposed to HEPES buffer without drugs for a 10 min incubation to reestablish basal release. After each incubation, the buffer was removed to measure the amount of CGRP using radioimmunoassay as previously described (Chen et al., Peptides 17, 31, 1996). At the end of each release experiment, cells were hypotonically lysed by exposing the cultures to 0.1 M HCl for 10 min and an aliquot taken to measure total CGRP content in the cultures using radioimmunoassay. […] Release data are presented in fmol/well of cell/10 min from three independent experiments from separate harvests. Statistical analysis was performed using ANOVA with Tukey's post hoc test.

male Sprague-Dawley rats = assay: Nociceptive (pain) behavior after intradermal hindpaw injection; type: in vivo, rat; conditions: for decrease of C-fiber withdrawal latencies: after intradermal hindpaw injection (11H-12,13E-LA 30 μg), versus vehicle
Description: 11-hydroxy-12,13-trans-epoxy-(9Z)-octadecenoate (30 μg) was injected intradermally into the hindpaw of male Sprague-Dawley rats. Baseline measurements were taken for all tests prior to injection. A-delta and C-fiber mediated hindpaw withdrawal responses were measured as previously described (Mitchell et al., Pain 155, 733, 2014). Briefly, by stimulation of the plantar surface of the paw with a 100 ms laser pulse, producing a rapid withdrawal response. Laser pulses were delivered by an infrared diode laser (LASS-10 M; Lasmed, Mountain View, CA, USA) and calibrated to 3500 mA at 0.5 mm diameter, and delivered from 1 cm distance, C-fiber mediated responses were measured by delivery of a slow temperature ramp to the plantar surface of the hindpaw, with stimulus termination by voluntary withdrawal of the paw. The laser stimulus was adjusted to result in an approximately 10 second withdrawal latency (1000 mA, 13 cm distance).

human THP-1 cells = assay: ApoA1 cholesterol efflux screen in THP-1 cells; type: cell-based; conditions: 50 μM; THP-1 cells incubated with ApoA1
Description: Human THP-1 cells were incubated with ApoA1 in the presence of linoleic acid or several different fatty acid derivatives (50 μM) in a blinded manner, and resulting cholesterol efflux was measured (FIG. 9) as previously described (PMID: 26879139).

[2] = test system: tumor necrosis factor (TNF)-alpha secretion, human PBMCs; assay: PBMC cytokine secretion (ELISA): TNF-alpha; type: cell-based; conditions: 100 μM, 24 hours; for LPS-induced TNF-alpha secretion: LPS pre-incubation; for native TNF-alpha secretion: no LPS
Description: (§1) Freshly isolated human PBMCs were pre-incubated (FIGS. 11A and 11C) or not (FIGS. 11B and 11D) with LPS, and then incubated with ferulic acid (“FA,” 100 μM) and 11H-12,13E-LA, 11K-12,13E-LA, PBS, or LPS alone for 24 hours (blinded). Then, the medium concentration of TNF-alpha (FIGS. 11A and 11B) or […] (FIGS. 11C and 11D) was measured using enzyme-linked immunosorbent assay.

[3] = test system: interleukin (IL)-1, human PBMCs; assay: PBMC cytokine secretion (ELISA): IL-1; type: cell-based; conditions: 100 μM; with or without LPS; 24 hours
Description: as §1

[4] = test system: freshly isolated human PBMCs; assay: ApoA1 cholesterol efflux screen in freshly isolated PBMCs; type: cell-based; conditions: 50 μM
female mice (C57BL/6J) = assay: Pruriceptive (itch) behavior, scratching bouts after intradermal injection into nape of neck; type: in vivo, mouse; conditions: for itch-related scratching behavior compared to vehicle: 100 μg (mixture 100 μg of each) intradermal, n=6-8 per group, 30 minutes; for onset of scratching responses (significantly greater than vehicle) / time of maximum scratching response: 9K-12,13E-LA 100 μg, histamine 50 μg; for scratching bouts compared to vehicle, pilot testing: n=3 per group, first 30 minutes after intradermal injection
Description: Hydroxy- and keto-epoxide derivatives of LA (100 μg) or histamine (50 μg) were injected intra-dermally into the nape of neck of the female mice (C57BL/6J from Jackson Laboratory). LA derivatives (9-keto-12,13-epoxy-(10E)-octadecenoate or 13-keto-9,10-epoxy-(11E)-octadecenoate) were injected independently, and in combination (9-keto-12,13-epoxy-(10E)-octadecenoate plus 13-keto-9,10-epoxy-(11E)-octadecenoate (100 μg of each)). Pruriceptive behavior was quantified as the number of scratching bouts assessed over 30 minutes, as previously described (Mishra and Hoon, Science 340, 968, 2013).

[5] = test system: normal mice or a mast cell knock-out mouse; assay: Itch-related scratching in normal and mast cell knock-out mice; type: in vivo; conditions: 100 μg intradermal; 30 minutes
Description: The fatty acid derivative 9K-12,13E-LA (100 μg) was injected intra-dermally into the nape of neck of normal mice or a mast cell knock-out mouse (FIG. 8) in a blinded manner. Pruriceptive behavior was quantified as the number of scratching bouts assessed over 30 minutes, as previously described (Mishra and Hoon, Science 340, 968, 2013).

[6] = Incubation under esterification conditions (glycerol on silica gel, 3 days), LC-MS; type: physicochemical; conditions: for esterification with glycerol: free acid in ether with glycerol-coated silica gel, 3 days; for internal lactonization: under the esterification conditions
Description: • A: 10 mM NH4OAc, pH 7.4 • B: Acetonitrile+0.1% formic acid • 0-1.50 min: 5% B • 1.50-2 min: 5-90% B • 2-10 min: 90% B • 10.01-15 min: 5% B • DAD1 254 nm • DAD2 215 nm • Agilent Zorbax XDB-C18 5 μm C18 50×2.0 mm • 0.4 ml/min MS Parameters: Agilent 6120 with Electrospray Ionization • Drying gas flow: 11.0 L/min • Nebulizer pressure: 40 psig • Drying gas temperature: 350 C • Positive capillary voltage: 4000 V • Negative capillary voltage: 3000 V
Approximately 30 mg of silica gel was added to 25 mg of glycerol, and it was then vortexed to coat all of the silica with glycerol, until the admixture was free-flowing. Between 5-10 mg of this material was added to a solution of the free acid in ether, and it was vortexed briefly. The reaction was left for 3 days, then filtered and evaporated under nitrogen. The residue was redissolved in ethanol and analyzed by LC-MS, in both positive and negative modes.

[7] = test system: murine trigeminal sensory neurons; assay: Ca2+ responses in cultured trigeminal sensory neurons; type: cell-based, mouse; conditions: FIG. 7B
Description: Additionally, murine trigeminal sensory neurons were isolated and cultured in vitro. Fatty acid derivatives were applied to the cultured neurons and any resulting Ca^2+ response was measured in a blinded manner. The assayed compounds include: 11H-12,13E-LA (Compound 1), 11K-12,13E-LA (Compound 2), 11H-9,10E-LA (Compound 3), and 11K-9,10E-LA (Compound 4).

For `CCCCCC(O)/C=C/C1OC1CCCCCCCC(=O)O` (stereo not drawn) [13H-9,10E-LA, 13-hydroxy(H)-9,10-trans-epoxy-(E)-octadecenoate], the “capsaicin-evoked CGRP release” value [1] was “had no effect” and the “low-pH-evoked CGRP release” value [1] was “significantly augmented”.

In the case of `CCCCC[C@H](O)/C=C/[C@H]1[C@H](O)CC(=O)[C@@H]1C/C=C\CCCC(=O)O` [PGE2, prostaglandin E2, reference compound], the “direct stimulation of CGRP release” value ([1]; neutral pH) is reported as “neither PGE2 nor any of the other tested compounds directly stimulated”, the “capsaicin-evoked CGRP release” value [1] is reported as “significantly augmented” and the “low-pH-evoked CGRP release” value [1] is reported as “significantly augmented”. For the same molecule, the “proportion of withdrawal responses following Aδ fiber laser stimulation” value (male Sprague-Dawley rats; after intradermal hindpaw injection) was “significantly enhanced” and the “decrease of C-fiber withdrawal latencies” value (male Sprague-Dawley rats) was 46%.

For “9-hydroxy-octadecadienoic acid [reference compound]”, the “ApoA1-mediated monocyte cholesterol efflux” value (human THP-1 cells) was “increased”.

In the case of `CCCCCC1OC1C(=O)/C=C\CCCCCCCC(=O)O` (stereo not drawn) [11K-12,13E-LA, 11-keto(K)-12,13-trans-epoxy-(E)-octadecenoate], the “ApoA1-mediated monocyte cholesterol efflux” value (human THP-1 cells) is reported as “inhibited”, the “LPS-induced TNF-alpha secretion” value [2] is reported as “inhibits” and the “native TNF-alpha secretion” value [2] is reported as “inhibits”. The IL-1 secretion [3] was “has no effect” and the “ApoA1-mediated monocyte cholesterol efflux” value [4] was “inhibited”.

In the case of `CCCCCC1OC1/C=C/C(=O)CCCCCCCC(=O)O` (stereo not drawn) [9K-12,13E-LA, 9-keto(K)-12,13-trans-epoxy-(E)-octadecenoate], the “itch-related scratching behavior compared to vehicle” value (female mice (C57BL/6J)) is reported as “induced itch-related scratching behavior”, the “onset of scratching responses (significantly greater than vehicle)” value (female mice (C57BL/6J)) is reported as “slower onset” and the “time of maximum scratching response” value (female mice (C57BL/6J)) is reported as 10 to 15 min. The “scratching bouts compared to vehicle, pilot testing” value (female mice (C57BL/6J)) was “appeared to increase scratching bouts”, the “scratching responses in mast cell knockout mice” value [5] was “increased scratching responses” and the “scratching responses in wild type mice” value [5] was “increased scratching responses”.

With `CCCCC/C=C\C/C=C\CCCCCCCC(=O)O` [Linoleic acid, reference compound] the “ApoA1-mediated monocyte cholesterol efflux” value (human THP-1 cells) was “increased cholesterol efflux”.

With `CC/C=C\C/C=C\C/C=C\C/C=C\C/C=C\C=C\C(O)CC(C)C(=O)O` (centres unmarked) [2-methyl-4-hydroxy-DHA] the esterification with glycerol [6] was “resistant to glycerol esterification” and the internal lactonization [6] was “competitive lactonization”.

With `CC/C=C\C/C=C\C/C=C\C/C=C\C/C=C\C=C\C(O)CC(C)(C)C(=O)O` (centres unmarked) [2,2-dimethyl-4-hydroxy-DHA] the esterification with glycerol [6] was “resistant to esterification, including internal lactonization” and the internal lactonization [6] was “did not lactonize”.

With `CCCCCC(=O)/C=C/C1OC1CCCCCCCC(=O)O` (stereo not drawn) [13K-9,10E-LA, 13-keto(K)-9,10-trans-epoxy-(E)-octadecenoate] the “itch-related scratching behavior compared to vehicle” value (female mice (C57BL/6J)) was “no response” and the “scratching bouts compared to vehicle, pilot testing” value (female mice (C57BL/6J)) was “appeared to increase scratching bouts”.

In the case of `CCCCCC1OC1/C=C/C(O)CCCCCCCC(=O)O` (stereo not drawn) [9H-12,13E-LA, 9-hydroxy(H)-12,13-trans-epoxy-(E)-octadecenoate], the “capsaicin-evoked CGRP release” value [1] is reported as “Neither 9H-12,13E-LA, nor any of the tested keto-epoxy-octadecenoates, augmented” and the “low-pH-evoked CGRP release” value [1] is reported as “Neither 9H-12,13E-LA, nor any of the tested keto-epoxy-octadecenoates, augmented”.

In the case of `CCCCCC(O)/C=C/C1OC1CCCCCCC(C)(C)C(=O)O` (stereo not drawn) [2,2-dimethyl-13-hydroxy-9,10-trans-epoxy-(11E)-octadecenoic acid], the esterification with glycerol [6] is reported as “resistant to esterification”.

For `NCCc1c[nH]cn1` [histamine, reference compound], the “onset of scratching responses (significantly greater than vehicle)” value (female mice (C57BL/6J)) was at most 5 min and the “time of maximum scratching response” value (female mice (C57BL/6J)) was 5 to 10 min.

For `CC/C=C\C/C=C\C/C=C\C/C=C\C/C=C\C=C\C(O)CCC(=O)O` (centres unmarked) [4-hydroxy-DHA, reference compound], the internal lactonization [6] was “rapidly undergoes internal lactonization”.

With `CCCCC/C=C\C(O)C1OC1CCCCCCCC(=O)O` (stereo not drawn) [11H-9,10E-LA, 11-hydroxy(H)-9,10-trans-epoxy-(E)-octadecenoate] the “capsaicin-evoked CGRP release” value [1] was “significantly augmented”, the “low-pH-evoked CGRP release” value [1] was “significantly augmented” and the “number of trigeminal cells responding, concentration-response” value [7] was “increase in the number of cells responding”.

With `CCCCCC1OC1C(O)/C=C\CCCCCCCC(=O)O` (stereo not drawn) [11H-12,13E-LA, 11-hydroxy(H)-12,13-trans-epoxy-(E)-octadecenoate] the “capsaicin-evoked CGRP release” value [1] was “significantly augmented”, the “low-pH-evoked CGRP release” value [1] was “significantly augmented” and the “decrease of C-fiber withdrawal latencies” value (male Sprague-Dawley rats) was 28%. The “ApoA1-mediated monocyte cholesterol efflux” value (human THP-1 cells) was “inhibited”, the “LPS-induced TNF-alpha secretion” value [2] was “inhibits” and the “native TNF-alpha secretion” value [2] was “inhibits”. For the same molecule, the IL-1 secretion [3] was “has no effect”, the “number of trigeminal cells responding, concentration-response” value [7] was “increase in the number of cells responding” and the “ApoA1-mediated monocyte cholesterol efflux” value [4] was “inhibited”.
